{"source": "patent US7468379B2", "about": "“Inhibition of osteolytic lesions by SRC kinase inhibitors” (The Board of Regents of the University of Texas System, priority 2005, dated 2008)", "key": {"[1]": {"tested_on": "Src-dependent protein tyrosine phosphorylation", "assay": "Src-dependent protein tyrosine phosphorylation", "conditions": "concentrations comparable to the Src enzyme IC50"}, "[2]": {"tested_on": "BMM cells", "assay": "Cytotoxicity assay against BMM cells (crystal violet)", "assay_type": "cell-based", "method": "(§1) Primary Bone Marrow Cell Culture. Primary bone marrow cells (BMM) from the tibiae and femora were aseptically dissected from Black 6 mice (C57BU6J) 8-12 weeks of age. Bone marrow was flushed out with incomplete D-MEM and centrifuged at 1200 rpm for 3 minutes and re-suspended in 5 ml incomplete D-MEM. BMM cells were incubated in 20 ml Red Blood Cell lysis buffer (8.3 g/NH4Cl, 1 g/l sodium bicarbonate, 0.4 g/l EDTA) at room temperature for 1-2 min. 25 ml of D-MEM supplemented with 10% FBS and 100 units/ml penicillin (complete D-MEM) were added and BMM cells were centrifuged for 3 min at 1200 rpm. BMM cells were then plated at 1.5−2×10^7 cells/10 cm dish with 10 ml of complete D-MEM and cultured for 24 h. Non-adherent cells were collected and centrifuged for 5 min at 1200 rpm and plated at a concentration of 2.5×10^4 cells/well in a 96 well dish for cytotoxicity assay, 2×10^4 cells/well in 48-well plates, or 5×10^3 cells/well in 96-well plates for osteoclast differentiation assays. Cells were cultured for 3 days in the presence of 10 ng/ml M-CSF before they were washed and used for further studies. For differentiation into osteoclasts 30-100 ng/ml RANKL is added. Media was supplemented after 2 days with fresh M-CSF and RANKL.\nCytotoxicity Assay. […] Absorbance was measured at 630 nm using an EL800 universal microplate reader from Bio-Tek Instruments Inc (Winooski, Vt.)."}, "[3]": {"tested_on": "BMM cells", "assay": "In vitro RANKL-mediated osteoclast differentiation of BMM cells (TRAP staining)", "assay_type": "cell-based, Black 6 mice (C57BL/6J)", "conditions": "M-CSF 10 ng/ml and RANKL 100 ng/ml, TRAP staining on day five", "source_text": "FIGS. 1A-1C. […] M-CSF was replenished on day 3. Cells were fixed and stained for TRAP on day five, using a TRAP staining kit from Sigma-Aldrich (St. Louis, Mo.). (FIG. 1C) Data shown is representative of three experiments. Shown are photographs of representative fields from the different treatments using a 10× objective lens.\n(§2) Primary Bone Marrow Cell Culture. Primary bone marrow cells (BMM) from the tibiae and femora were aseptically dissected from Black 6 mice (C57BU6J) 8-12 weeks of age. Bone marrow was flushed out with incomplete D-MEM and centrifuged at 1200 rpm for 3 minutes and re-suspended in 5 ml incomplete D-MEM. BMM cells were incubated in 20 ml Red Blood Cell lysis buffer (8.3 g/NH4Cl, 1 g/l sodium bicarbonate, 0.4 g/l EDTA) at room temperature for 1-2 min. 25 ml of D-MEM supplemented with 10% FBS and 100 units/ml penicillin (complete D-MEM) were added and BMM cells were centrifuged for 3 min at 1200 rpm. BMM cells were then plated at 1.5−2×10^7 cells/10 cm dish with 10 ml of complete D-MEM and cultured for 24 h. […]\nIn Vitro Osteoclast Differentiation. […] At day 5, cells were fixed and assessed for osteoclast differentiation by counting the total number of TRAP-positive, multinucleated (>3 nuclei), cells per well 96 h post-treatment using Leucocyte Acid phosphatase kit from Sigma-Aldrich (St. Louis, Mo.)."}, "[4]": {"tested_on": "BMM cells", "assay": "Time-dependency of osteoclast differentiation inhibition in BMM cells", "assay_type": "cell-based, Black 6 mice (C57BL/6J)", "conditions": "300 nM SKI606 added 12, 24 or 48 hours post-RANKL stimulation, TRAP at 96 h", "source_text": "FIGS. 2A-2B. BMM cells respond to SKI606 in a time-dependent manner. […] M-CSF was replenished on day 3. Cells were fixed and stained for TRAP on day five, using a TRAP staining kit from Sigma-Aldrich (St. Louis, Mo.). (FIG. 2B) Data shown is representative of three experiments. Photographs are of representative fields from the different treatments using a 10× objective lens.\nas §2\nTime-dependency. […] Cells were then fixed, stained for TRAP and the numbers of osteoclasts were counted in each condition as described above."}, "[5]": {"tested_on": "BMM cells", "assay": "Bone-resorption assay (collagen I release from OsteoAssay plates)", "assay_type": "cell-based, Black 6 mice (C57BL/6J)", "conditions": "300 nM SKI606 with M-CSF and RANKL, compared to M-CSF and RANKL treatment, day 5", "method": "as §1, with “Cells were cultured for 3 days in the presence of 10 ng/ml M-CSF before they were washed and used for further studies. For differentiation into osteoclasts 30-100 ng/ml RANKL is added. Media was supplemented after 2 days with fresh M-CSF and RANKL.” left out\nBone-Resorption Assay. […] Bone resorption was evaluated by measuring collagen I release from the OsteoAssay plate using Cross Laps for Culture ELISA kit from Nordic Bioscience Diagnostics (Portsmouth, Va.). Absorbance was measured at 450 nm using the reading at 650 nm as reference using an EL800 universal microplate reader from Bio-Tek Instruments Inc (Winooski, Vt.)."}, "[6]": {"tested_on": "RAW264.7 cells", "assay": "RAW264.7 co-culture with MDA-MB-435 cells, osteoclastogenesis (TRAP)", "assay_type": "cell-based, mouse", "conditions": "400 nM SKI606, 5 days", "method": "(§3) FIGS. 4A-4B. […] (FIG. 4B) RAW264.7 cells (750 cells/well; 8 wells per treatment) were plated in 96 well plates in 10% conditioned media from MDA-MB-435 for 5 days. The cultures were fixed and stained for TRAP on day five, using a TRAP staining kit from Sigma-Aldrich (St. Louis, Mo.). Data shown is representative of five experiments.\nRAW 264.7 Co-culture with MDA MB435 cells and Conditioned Media. For co-culture assays RAW264.7 (500 cells/well) were plated in 96 well plates and allowed to adhere for 12 hours. MDA-MB-435 were then introduced into the RAW264.7 culture at increasing density and incubated for 12 hours. […] Cells were then fixed, stained for TRAP and the numbers of osteoclasts were counted in each condition as described above."}, "[7]": {"tested_on": "RAW264.7 cells", "assay": "RAW264.7 with conditioned media from MDA-MB-435 cells, osteoclastogenesis (TRAP)", "assay_type": "cell-based, mouse", "conditions": "10% conditioned media, 5 days", "method": "as §3\nFor conditioned media the MDA-MB-435 cells were plated in 10 cm plates (1×10^6 cells/plate) and incubated for 36 hours. Media was then removed, centrifuged for 5 minutes at 2500 rpm and supernatants were isolated and placed in 4° C. until use. RAW264.7 cells (750 cells/well) were plated in 96 well plates and allowed to adhere for 12 hours. […] Cells were then fixed, stained for TRAP and the numbers of osteoclasts were counted in each condition as described above."}, "[8]": {"tested_on": "MDA-MB-435 cells", "assay": "MDA-MB-435 Bone Tumor Mouse Model (intratibial injection)", "assay_type": "in vivo, Female athymic NCr nude mice", "conditions": "SKI606 150 mg/kg oral gavage, 9 weeks; tumor-injected tibia sections", "quoted_text": "Mice were divided into 3 treatment groups. […] (FIG. 5A) Weight of tumor was determined as follows: weight of injected leg-weight of non-injected hind leg of the same animal. (FIG. 5B) Areas of lysis were estimated from digital X-ray images; NIH Scion program was used to measure area of tibias and lytic areas, to calculate the ratio of pixels in lytic zones/pixels in tibia area. (FIG. 5C) The tumor-injected tibia was fixed and decalcified in EDTA, and sections stained for the presence of multinucleated osteoclasts (>3 nuclei) using TRAP staining kit from Sigma-Aldrich (St. Louis, Mo.).\nX-ray images were taken at 35 days after injection, and also at 14-day intervals. […]\nIntrabone Injections and Processing of Bone Tissue Samples. […] After 9 weeks, final X-ray images were taken, tumor weight calculated from the difference in weight of the tumor-bearing and non tumor-bearing leg of the same animal. […] Incidence of tumor in the tibia was determined by examination of histology sections. Weight of tumor was determined as follows: weight of injected leg-weight of non-injected hind leg of the same animal. […]\nMice were divided into three treatment groups and the incidence of tumor in the tibia was determined by examination of histology sections and weight of tumor."}}}
{"compound": "COc1cc(Nc2c(C#N)cnc3cc(OCCCN4CCN(C)CC4)c(OC)cc23)c(Cl)cc1Cl", "note": "[SKI606, 4-((2,4-Dichloro-5-methoxyphenyl)amino)-6-methoxy-7-(3-(4-methyl-1-piperazinyl)propoxy)-3-quinolinecarbonitrile]", "values": [{"measurement": "inhibition of Src-dependent protein tyrosine phosphorylation", "setting": "[1]", "result": "inhibits Src-dependent protein tyrosine phosphorylation at comparable concentrations"}, {"measurement": "cells died (cytotoxicity to BMM cells)", "setting": "[2]; 600 nM SKI606, 72 h", "result": "less than 10%"}, {"measurement": "cytotoxicity to BMM cells", "setting": "[2]; 72 h", "result": "not cytotoxic"}, {"measurement": "effect on RANKL-mediated osteoclast differentiation in BMM", "setting": "[3]", "result": "inhibitory effect on RANKL-mediated osteoclast differentiation in BMM in a dose dependent manner"}, {"measurement": "sensitivity of BMM cells to compound added after initiation of osteoclastogenesis", "setting": "[4]", "result": "less sensitive"}, {"measurement": "decrease in collagen I release, an indicator of bone resorption", "setting": "[5]", "result": 3.7, "unit": "fold"}, {"measurement": "inhibition of MDA-MB-435-induced osteoclastogenesis in RAW264.7 cells", "setting": "[6]", "result": "significantly inhibited"}, {"measurement": "inhibition of osteoclastogenesis induced by conditioned media from MDA-MB-435 cells", "setting": "[7]", "result": "able to inhibit"}, {"measurement": "TRAP-positive cells counted in sections of tumors", "setting": "[8]", "result": "significantly fewer"}]}
